Reference: patent US12281299B2, “Control of nitrogen fixation in rhizobia that associate with cereals” (Massachusetts Institute of Technology, priority 2019, dated 2025)

Experiments:
P. protegens Pf-5 [1] = assay: Genetic part characterization for P. protegens (promoters, RBSs, terminators, inducible systems; fluorescence reporter, flow cytometry); assay type: cell-based, Pseudomonas protegens; settings: Ptac promoter and Lad (Q18M/A47V/F161Y) protein, 1 mM IPTG, P. protegens Pf-5
From the text: Construction and characterization genetic parts for P. protegens. Genetic part libraries were built on a pRO1600-ori plasmid pMR-2 using Gibson assembly (New England Biolabs, Cat # E2611). The fluorescence proteins, GFPmut3b and mRFP1 were used as reporters. The Anderson promoter library on the BioBricks Registry were utilized for the characterization of constitutive promoters (FIGS. 11A-11C). The following combinations of cognate regulators and inducible promoters were characterized. IPTG inducible LacI-Ptac, DAPG inducible PhlF-PPhl, aTc inducible TetR-PTet, 3OC6HSL inducible LuxR-PLux, arabinose inducible AraC-PBAD, cuminic acid inducible CymR-PCym, and naringenin inducible FdeR-PFde were optimized (FIGS. 15A-15C). […] RBS library for GFP was designed using the RBS library calculator at the highest-resolution mode, and the 3′ end of the 16S rRNA sequences were adjusted according to the species (3′-ACCTCCTTA-5′ for P. protegens Pf-5). Terminators for T7 RNAP were characterized by placing a terminator between two fluorescence reporters expressed from a single T7 wild-type promoter located upstream of the first fluorescence protein GFP. The expression of the two fluorescence proteins is enabled by an IPTG-inducible T7 RNAP expression system of the controller strain MR7 (FIGS. 13A-13B). All genetic parts for P. protegens Pf-5 were characterized as follows.

nifH promoter = assay: nifH expression analysis (PnifH-sfgfp, flow cytometry), A. caulinodans; assay type: cell-based, Azorhizobium caulinodans; settings: nifA and rpoN under IPTG control, condition used for nitrogen fixation
Protocol: Flow cytometry. Cultures with fluorescence proteins were analyzed by flow cytometry using a BD Biosciences LSRII Forterssa analyzer with a 488 nm laser and 510/20-nm band pass filter for GFP and a 561 nm laser and 610/20 nm band pass filter for mCherry and mRFP1. Cells were diluted into 96-well plates containing phosphate buffered saline solution (PBS) supplemented with 2 mg/mL kanamycin after incubation. Cells were collected over 20,000 events which were gated using forward and side scatter to remove background events using FlowJo (TreeStar Inc., Ashland, Oreg.). The median fluorescence from cytometry histograms was calculated for all samples. The median autofluorescence was subtracted from the median fluorescence and reported as the fluorescence value in arbitrary unit (au).
nifH expression analysis. Complementation of NifA was tested using plasmid pMR-128 to 130 that contains the sfgfp fused to the nifH promoter in the A. caulinodans ΔnifA mutant. The inducible NifA/RpoN expression was provided by the plasmid pMR-121 into which sfgfp driven by the nifH promoter was added to analyze MN promoter activity, yielding pMR-131 (FIG. 29). […] Each of the plasmids was mobilized into the A. caulinodans ΔnifA mutant, which was grown following the same protocol as used for nitrogenase activity (described herein). […]

P. protegens Pf-5 [2] = assay: Characterization of genomically integrated controllers (T7 promoter GFP reporter), P. protegens Pf-5; assay type: cell-based, Pseudomonas protegens; settings: P. protegens Pf-5 controller strain MR7, reporter plasmid pMR-80
From the text: Genomic integration and characterization of controllers. The mini-Tn7 insertion system was used to introduce a controller into the genome of P. protegens Pf-5. The IPTG-inducible T7 RNAP expression system and a tetracycline resistant marker tetA was placed between two Tn7 ends (Tn7L and Tn7R). The controller plasmid pMR-85 was introduced into P. protegens Pf-5 by double transformation with pTNS3 encoding the TnsABCD transposase. A genomically-integrated controller located 25 bp downstream of the stop codon of glmS was confirmed by PCR and sequencing. A markerless insertion method using homologous recombination was employed in R. sp. IRBG74. A controller encoding inducible T7 RNAP system flanked by two homology fragments that enables the replacement of recA was cloned into a suicide plasmid. These controller plasmids (IPTG-inducible, pMR82-84; DAPG-inducible, pMR85) in E. coli was mobilized into R. sp. IRBG74 MR18 (AhsdR. Anif) by triparental mating, generating the controller strains (MR19, 20, 21 and 22, respectively). The controller integration in the genome was confirmed by gentamicin sensitivity and diagnostic PCR. All controllers were characterized in a manner identical to that described in genetic part characterization.

[3] = tested on: E. coli Marionette MG1655; settings: 1 mM choline-Cl
Protocol: The reporter plasmid pMR-120 in which gfpmut3b is fused to the PT7(P2) promoter (FIGS. 28A-28C) was co-transformed to analyze the response functions of each of the 12 T7 RNAP controller plasmids. To characterize controllers, single colonies were inoculated into 1 ml LB supplemented with antibiotics in 96-deepwell plates (USA Scientific, Cat #18962110) and grown overnight at 30° C., 900 rpm in a Multitron incubator (INFORS HT, MD). 0.5 μl of overnight cultures was diluted into 200 μl of LB with antibiotics and appropriate inducers in 96-well plates (Thermo Scientific, Cat #12565215) and incubated for 6 h at 30° C., 1,000 rpm in an ELMI DTS-4 shaker (ELMI, CA). After growth, 4 μl of culture sample was diluted into 150 μl PBS with 2 mg/mL kanamycin for flow cytometry analysis.
Flow cytometry. Cultures with fluorescence proteins were analyzed by flow cytometry using a BD Biosciences LSRII Forterssa analyzer with a 488 nm laser and 510/20-nm band pass filter for GFP and a 561 nm laser and 610/20 nm band pass filter for mCherry and mRFP1. […] The median fluorescence from cytometry histograms was calculated for all samples. The median autofluorescence was subtracted from the median fluorescence and reported as the fluorescence value in arbitrary unit (au).

CC(C)S[C@@H]1O[C@H](CO)[C@H](O)[C@H](O)[C@H]1O [IPTG, Isopropyl-beta-D-thiogalactoside]
expression range of IPTG-inducible system (P. protegens Pf-5 [1]): 110 fold
dynamic range of response function from the nifH promoter (nifH promoter): 45 fold
activation of GFP expression by the T7 promoter (P. protegens Pf-5 [2]): 96 fold

C[N+](C)(C)CCO.[Cl-] [choline-Cl, Choline chloride]
inducibility of the T7 promoter by controller plasmid [3]: not inducible
